Results from patent publication US4316904A, “Indolopyrone tetrazoles and carboxamidotetrazoles having antiallergic activity” (priority 1979, dated 1982).

Test system: Reaginic Passive Cutaneous Anaphylaxis (PCA)
Experiment: Rat Reaginic Passive Cutaneous Anaphylaxis (PCA)
Type: in vivo
Conditions: for inhibition in vivo at 1 mg/kg / inhibition in vivo at 5 mg/kg: ip, read-out: percent inhibition (PCA test); for inhibition (PCA test), oral: orally
Description: The compounds of the invention are new chemical substances of value as pharmacological agents which prevent the allergic response in mammals by inhibition of the release of such allergic mediators, as histamine. The assay by which this utility was established is carried out as follows.
Rat Reaginic Passive Cutaneous Anaphylaxis (PCA)
The PCA test (D. J. Herzig, P. R. Schumann, E. J. Kusner, L. Robichaud, R. E. Giles, B. Dubnick, M. von Strandtmann, S. Klutchko, M. Cohen, and J. Shavel, Jr., "Immunopharmacology", M. E. Rosenthale and H. C. Mansmann, Eds., Spectrum Publications, Inc., New York, N.Y., 1975, pp. 103-124) involved immunization of rats with 1 mg of ovalbumin intramuscularly and approximately 10^10 B. pertussis organisms as pertussis vaccine, intraperitoneally. Fourteen days later, the rats were bled and the serum was prepared. Suitable dilutions of antiserum were injected intradermally at various sites on the back of rats 48 h before an intravenous injection of 1 mg of ovalbumin in 1 ml of physiological saline and 0.25% Evans Blue. Thirty minutes later the animals were killed in ether, the dorsal skin was reflected, and the mean orthogonal diameter of the wheal was measured. For oral or intraperitoneal dosing, the drugs were suspended in 1% gum tragacanth in physiological saline and given 10-15 min before intravenous antigen challenge. For intravenous dosing, the compounds were dissolved in the saline/ovalbumin/Evans Blue solution and given with the antigen. If necessary, the compounds were first dissolved in a slight molar excess of sodium bicarbonate and then diluted into the antigen solution. Groups of five animals were used for all dose levels and control groups.
To quantitate the PCA test, the mean diameter of each wheal spot was graphed as a function of the relative antiserum concentration. The line, fitted by the least-squares equation, was extrapolated to the value at "zero" antiserum concentration (base value). The following equation was then used to calculate the percent inhibition: [formula]
The statistical significance of the results was determined by Student's t test (p≤0.05). An inhibition of 15% was significant. The test results obtained for the compounds of the invention as well as for the corresponding acids (U.S. Pat. No. 4,028,383) are given as percent inhibition in the following table.

[1] = 10-15 min before intravenous antigen challenge
[2] = 5 mg/kg, 10-15 min before intravenous antigen challenge

SMILES	inhibition in vivo at 1 mg/kg [1] [%]	inhibition in vivo at 5 mg/kg [2] [%]	further results
CCn1c2ccccc2c2oc(C(=O)O)cc(=O)c21 [H/C2 H5 A, 5-ethyl-4,5-dihydro-4-oxopyrano[3,2-b]indole-2-carboxylic acid, reference compound]	0	–	–
Cn1c2ccccc2c2oc(-c3nnn[nH]3)cc(=O)c21 [H/CH3 T, 5-Methyl-2(1H-tetrazol-5-yl)pyrano[3,2-b]indol-4(5H)-one]	87	100	inhibition (PCA test), oral (2 mg/kg): 12%; inhibition (PCA test), oral (5 mg/kg): 39%
Cn1c2ccc(Cl)cc2c2oc(C(=O)Nc3nnn[nH]3)cc(=O)c21 [8-Cl/CH3 C, 8-Chloro-4,5-dihydro-5-methyl-4-oxo-N-1H-tetrazol-5-ylpyrano[3,2-b]indole-2-carboxamide]	38	100	–
Cc1ccc2c(c1)c1oc(C(=O)O)cc(=O)c1n2C [8-CH3 /CH3 A, 4,5-dihydro-5,8-dimethyl-4-oxopyrano[3,2-b]indole-2-carboxylic acid, reference compound]	18	–	–
Cn1c2c([N+](=O)[O-])cc([N+](=O)[O-])cc2c2oc(C(=O)Nc3nnn[nH]3)cc(=O)c21 [6,8-di-NO2 /CH3 C, 4,5-Dihydro-5-methyl-6,8-dinitro-4-oxo-N-1H-tetrazol-5-ylpyrano[3,2-b]indole-2-carboxamide]	–	48	–
CCn1c2ccccc2c2oc(-c3nnn[nH]3)cc(=O)c21 [H/C2 H5 T, 5-Ethyl-2-(1H-tetrazol-5-yl)pyrano[3,2-b]indol-4(5H)-one]	100	100	inhibition (PCA test), oral (5 mg/kg): 70%
Cn1c2ccc([N+](=O)[O-])cc2c2oc(C(=O)O)cc(=O)c21 [8-NO2 /CH3 A, 4,5-Dihydro-5-methyl-8-nitro-4-oxopyrano-[3,2-b]indole-2-carboxylic acid, reference compound]	1	100	–
Cn1c2c([N+](=O)[O-])cc([N+](=O)[O-])cc2c2oc(C(=O)O)cc(=O)c21 [6,8-di-NO2 /CH3 A, 4,5-Dihydro-5-methyl-6,8-dinitro-4-oxopyrano[3,2-b]indole-2-carboxylic acid, reference compound]	–	0	–
O=C(O)c1cc(=O)c2c(o1)c1ccccc1n2-c1ccccc1 [H/.phi. A, reference compound]	13	–	–
Cn1c2ccccc2c2oc(C(=O)O)cc(=O)c21 [H/CH3 A, 4,5-dihydro-5-methyl-4-oxopyrano[3,2-b]indole-2-carboxylic acid, reference compound]	30	100	–
O=C(Nc1nn[nH]n1)c1cc(=O)c2c(o1)c1ccccc1n2-c1ccccc1 [H/.phi. C]	–	–	percent inhibition (PCA test) (i.p., 5 mg/kg, 10-15 min before intravenous antigen challenge): Inac.
Cc1ccc2c(c1)c1oc(C(=O)Nc3nnn[nH]3)cc(=O)c1n2C [8-CH3 /CH3 C, 4,5-Dihydro-5,8-dimethyl-4-oxo-N-1H-tetrazol-5-ylpyrano[3,2-b]indole-2-carboxamide]	33	100	–
Cn1c2ccccc2c2oc(C(=O)Nc3nnn[nH]3)cc(=O)c21 [H/CH3 C, 4,5-Dihydro-5-methyl-4-oxo-N-1H-tetrazol-5-ylpyrano[3,2-b]indole-2-carboxamide]	28	100	–
CCn1c2ccccc2c2oc(C(=O)Nc3nnn[nH]3)cc(=O)c21 [H/C2 H5 C, 5-Ethyl-4,5-dihydro-4-oxo-N-1H-tetrazol-5-ylpyrano[3,2-b]indole-2-carboxamide]	12	100	–
Cn1c2ccc(Cl)cc2c2oc(-c3nnn[nH]3)cc(=O)c21 [8-Cl/CH3 T, 8-Chloro-5-methyl-2-(1H-tetrazol-5-yl)pyrano[3,2-b]indol-4(5H)-one]	46	100	inhibition (PCA test), oral (5 mg/kg): 33%
Cn1c2ccc(Cl)cc2c2oc(C(=O)O)cc(=O)c21 [8-Cl/CH3 A, 8-chloro-4,5-dihydro-5-methyl-4-oxopyrano[3,2-b]indole-2-carboxylic acid, reference compound]	–	23	–
O=c1cc(-c2nnn[nH]2)oc2c3ccccc3n(-c3ccccc3)c12 [H/.phi. T, 5-Phenyl-2(1H-tetrazol-5-yl)pyrano[3,2-b]indol-4(5H)-one]	61	100	inhibition (PCA test), intravenous (intravenously, 0.1 mg/kg, given with the antigen): 28%; inhibition (PCA test), oral (2 mg/kg): 32%
Cc1ccc2c(c1)c1oc(-c3nnn[nH]3)cc(=O)c1n2C [8-CH3 /CH3 T, 5,8-Dimethyl-2-(1H-tetrazol-5-yl)pyrano[3,2-b]indol-4(5H)-one]	25	100	inhibition (PCA test), oral (5 mg/kg): 56%
Cn1c2ccc([N+](=O)[O-])cc2c2oc(C(=O)Nc3nnn[nH]3)cc(=O)c21 [8-NO2 /CH3 C, 4,5-Dihydro-5-methyl-8-nitro-4-oxo-N-1H-tetrazol-5-ylpyrano[3,2-b]indole-2-carboxamide]	42	100	–
